Laboratory results from US9238631B2, “Radiolabeled amino acids for diagnostic imaging” (PIRAMAL IMAGING SA, priority 2011, dated 2016).

Tested on: NCI-H460 tumor
Assay: In vivo biodistribution in NCI-H460 tumor bearing mice
Design: Summary: organs / Summary: Carcass / Summary: faeces: unit not given here
Conditions: for Summary: urine: in %; for Summary: Recovery: in % (unit assumed)
Procedure, shortened: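 Biodistribution of 18F-labeled compounds was assessed in female NMRI (nu/nu) mice bearing NCI-H460 tumors, established by inoculating 5×10^6 cells 8 to 10 days beforehand. Each mouse received 185 kBq of the fluorinated tracer; at least n=3 animals per time point were sacrificed, organs excised, and radioactivity quantified with a γ-counter.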

**Q.** N[C@@H](CCC(Cc1ccc(OCC[18F])cc1)C(=O)O)C(=O)O (stereo partly drawn) [[^18F]-12] [(2S)-2-Amino-5-[4-(2-[^18F]fluoroethoxy)benzyl]hexanedioic acid] was tested. Which “Summary: faeces” value (timepoint 1.0 h) did it give?
**A.** 0.01

**Q.** What about the “Summary: organs” value (timepoint 1.0 h) of the same compound?
**A.** 12.93

**Q.** What about the “Tail (% Dosis/g)” value (timepoint 1.0 h) of the same compound?
**A.** 0.41 % Dosis/g

**Q.** What about the “Thyroid (% Dosis/g)” value (timepoint 1.0 h) of the same compound?
**A.** 0.29 % Dosis/g

**Q.** What about the “Tumor (% Dosis/g)” value (timepoint 1.0 h) of the same compound?
**A.** 6.47 % Dosis/g

**Q.** What about the “Tumor/Tissue: Adrenals” value (timepoint 1.0 h) of the same compound?
**A.** 23.74

**Q.** What about the “Tumor/Tissue: Blood” value (timepoint 1.0 h) of the same compound?
**A.** 33.90

**Q.** What about the “Tumor/Tissue: Bone” value (timepoint 1.0 h) of the same compound?
**A.** 41.80

**Q.** And the “Tumor/Tissue: Brain” value (timepoint 1.0 h)?
**A.** 142.1

**Q.** And the “Tumor/Tissue: Fat” value (timepoint 1.0 h)?
**A.** 302.3

**Q.** And the “Tumor/Tissue: Gallbladder” value (timepoint 1.0 h)?
**A.** 0.88

**Q.** And the “Tumor/Tissue: Heart” value (timepoint 1.0 h)?
**A.** 58.14

**Q.** What about the “Tumor/Tissue: Intestine” value (timepoint 1.0 h) of the same compound?
**A.** 7.45

**Q.** What about the “Tumor/Tissue: Kidney” value (timepoint 1.0 h) of the same compound?
**A.** 3.12

**Q.** What about the “Tumor/Tissue: Liver” value (timepoint 1.0 h) of the same compound?
**A.** 2.99

**Q.** And the “Tumor/Tissue: Lung” value (timepoint 1.0 h)?
**A.** 18.22

**Q.** What about the “Tumor/Tissue: Muscle” value (timepoint 1.0 h) of the same compound?
**A.** 103.4

**Q.** What about the “Tumor/Tissue: Ovaries” value (timepoint 1.0 h) of the same compound?
**A.** 8.99

**Q.** And the “Tumor/Tissue: Pancreas” value (timepoint 1.0 h)?
**A.** 1.82

**Q.** What about the “Tumor/Tissue: Skin” value (timepoint 1.0 h) of the same compound?
**A.** 10.56

**Q.** And the “Tumor/Tissue: Spleen” value (timepoint 1.0 h)?
**A.** 4.32

**Q.** And the “Tumor/Tissue: Stomach” value (timepoint 1.0 h)?
**A.** 6.88

**Q.** What about the “Tumor/Tissue: Thyroid” value (timepoint 1.0 h) of the same compound?
**A.** 22.49

**Q.** And the “Tumor/Tissue: Uterus” value (timepoint 1.0 h)?
**A.** 8.25

**Q.** And the “Uterus (% Dosis/g)” value (timepoint 1.0 h)?
**A.** 0.97 % Dosis/g

**Q.** And the “Summary: urine” value (timepoint 1.0 h)?
**A.** 82.05

**Q.** And the “Summary: Recovery” value (timepoint 1.0 h)?
**A.** 98.57

**Q.** What about the “Adrenals (% Dosis/g)” value (timepoint 2.0 h) of the same compound?
**A.** 0.27 % Dosis/g

**Q.** And the “Blood (% Dosis/g)” value (timepoint 2.0 h)?
**A.** 0.08 % Dosis/g

**Q.** And the “Bone (% Dosis/g)” value (timepoint 2.0 h)?
**A.** 0.14 % Dosis/g

**Q.** And the “Brain (% Dosis/g)” value (timepoint 2.0 h)?
**A.** 0.05 % Dosis/g

**Q.** And the “Fat (% Dosis/g)” value (timepoint 2.0 h)?
**A.** 0.02 % Dosis/g

**Q.** And the “Gallbladder (% Dosis/g)” value (timepoint 2.0 h)?
**A.** 8.93 % Dosis/g

**Q.** What about the “Heart (% Dosis/g)” value (timepoint 2.0 h) of the same compound?
**A.** 0.06 % Dosis/g

**Q.** What about the “Intestine (% Dosis/g)” value (timepoint 2.0 h) of the same compound?
**A.** 1.12 % Dosis/g

**Q.** And the “Liver (% Dosis/g)” value (timepoint 2.0 h)?
**A.** 0.87 % Dosis/g

**Q.** What about the “Muscle (% Dosis/g)” value (timepoint 2.0 h) of the same compound?
**A.** 0.05 % Dosis/g

**Q.** What about the “Ovaries (% Dosis/g)” value (timepoint 2.0 h) of the same compound?
**A.** 0.54 % Dosis/g

**Q.** What about the “Pancreas (% Dosis/g)” value (timepoint 2.0 h) of the same compound?
**A.** 1.48 % Dosis/g

**Q.** And the “Skin (% Dosis/g)” value (timepoint 2.0 h)?
**A.** 0.43 % Dosis/g

**Q.** What about the “Spleen (% Dosis/g)” value (timepoint 2.0 h) of the same compound?
**A.** 1.29 % Dosis/g

**Q.** And the “Stomach (% Dosis/g)” value (timepoint 2.0 h)?
**A.** 0.46 % Dosis/g

**Q.** And the “Summary: Carcass” value (timepoint 2.0 h)?
**A.** 5.26

**Q.** And the “Summary: faeces” value (timepoint 2.0 h)?
**A.** 1.74

**Q.** What about the “Summary: organs” value (timepoint 2.0 h) of the same compound?
**A.** 8.77

**Q.** And the “Tail (% Dosis/g)” value (timepoint 2.0 h)?
**A.** 1.44 % Dosis/g

**Q.** What about the “Thyroid (% Dosis/g)” value (timepoint 2.0 h) of the same compound?
**A.** 0.26 % Dosis/g

**Q.** What about the “Tumor (% Dosis/g)” value (timepoint 2.0 h) of the same compound?
**A.** 7.21 % Dosis/g

**Q.** And the “Tumor/Tissue: Adrenals” value (timepoint 2.0 h)?
**A.** 27.83

**Q.** And the “Tumor/Tissue: Blood” value (timepoint 2.0 h)?
**A.** 86.51

**Q.** What about the “Tumor/Tissue: Bone” value (timepoint 2.0 h) of the same compound?
**A.** 57.86

**Q.** What about the “Tumor/Tissue: Brain” value (timepoint 2.0 h) of the same compound?
**A.** 161.0

**Q.** What about the “Tumor/Tissue: Fat” value (timepoint 2.0 h) of the same compound?
**A.** 396.0

**Q.** What about the “Tumor/Tissue: Gallbladder” value (timepoint 2.0 h) of the same compound?
**A.** 0.81

**Q.** What about the “Tumor/Tissue: Heart” value (timepoint 2.0 h) of the same compound?
**A.** 126.5

**Q.** And the “Tumor/Tissue: Intestine” value (timepoint 2.0 h)?
**A.** 6.58

**Q.** What about the “Tumor/Tissue: Kidney” value (timepoint 2.0 h) of the same compound?
**A.** 11.24

**Q.** And the “Tumor/Tissue: Liver” value (timepoint 2.0 h)?
**A.** 8.46

**Q.** And the “Tumor/Tissue: Lung” value (timepoint 2.0 h)?
**A.** 29.67

**Q.** And the “Tumor/Tissue: Muscle” value (timepoint 2.0 h)?
**A.** 169.9

**Q.** And the “Tumor/Tissue: Ovaries” value (timepoint 2.0 h)?
**A.** 13.81

**Q.** And the “Tumor/Tissue: Pancreas” value (timepoint 2.0 h)?
**A.** 4.90

**Q.** What about the “Tumor/Tissue: Skin” value (timepoint 2.0 h) of the same compound?
**A.** 39.91

**Q.** What about the “Tumor/Tissue: Spleen” value (timepoint 2.0 h) of the same compound?
**A.** 5.82

**Q.** And the “Tumor/Tissue: Stomach” value (timepoint 2.0 h)?
**A.** 16.25

**Q.** And the “Tumor/Tissue: Thyroid” value (timepoint 2.0 h)?
**A.** 35.78

**Q.** What about the “Tumor/Tissue: Uterus” value (timepoint 2.0 h) of the same compound?
**A.** 15.37

**Q.** What about the “Uterus (% Dosis/g)” value (timepoint 2.0 h) of the same compound?
**A.** 0.50 % Dosis/g

**Q.** And the “Summary: urine” value (timepoint 2.0 h)?
**A.** 83.35

**Q.** And the “Summary: Recovery” value (timepoint 2.0 h)?
**A.** 99.00

**Q.** What about the “Adrenals (% Dosis/g)” value (timepoint 4.0 h) of the same compound?
**A.** 0.16 % Dosis/g

**Q.** What about the “Blood (% Dosis/g)” value (timepoint 4.0 h) of the same compound?
**A.** 0.04 % Dosis/g

**Q.** What about the “Bone (% Dosis/g)” value (timepoint 4.0 h) of the same compound?
**A.** 0.06 % Dosis/g

**Q.** What about the “Brain (% Dosis/g)” value (timepoint 4.0 h) of the same compound?
**A.** 0.02 % Dosis/g

**Q.** What about the “Fat (% Dosis/g)” value (timepoint 4.0 h) of the same compound?
**A.** 0.01 % Dosis/g

**Q.** What about the “Gallbladder (% Dosis/g)” value (timepoint 4.0 h) of the same compound?
**A.** 6.45 % Dosis/g

**Q.** What about the “Heart (% Dosis/g)” value (timepoint 4.0 h) of the same compound?
**A.** 0.04 % Dosis/g

**Q.** And the “Intestine (% Dosis/g)” value (timepoint 4.0 h)?
**A.** 0.93 % Dosis/g

**Q.** What about the “Muscle (% Dosis/g)” value (timepoint 4.0 h) of the same compound?
**A.** 0.03 % Dosis/g

**Q.** What about the “Ovaries (% Dosis/g)” value (timepoint 4.0 h) of the same compound?
**A.** 0.24 % Dosis/g

**Q.** What about the “Pancreas (% Dosis/g)” value (timepoint 4.0 h) of the same compound?
**A.** 0.27 % Dosis/g

**Q.** And the “Skin (% Dosis/g)” value (timepoint 4.0 h)?
**A.** 0.37 % Dosis/g

**Q.** And the “Spleen (% Dosis/g)” value (timepoint 4.0 h)?
**A.** 0.59 % Dosis/g

**Q.** And the “Stomach (% Dosis/g)” value (timepoint 4.0 h)?
**A.** 0.21 % Dosis/g

**Q.** What about the “Summary: Carcass” value (timepoint 4.0 h) of the same compound?
**A.** 1.09

**Q.** And the “Summary: faeces” value (timepoint 4.0 h)?
**A.** 0.25

**Q.** What about the “Summary: organs” value (timepoint 4.0 h) of the same compound?
**A.** 6.12

**Q.** And the “Tail (% Dosis/g)” value (timepoint 4.0 h)?
**A.** 0.55 % Dosis/g

**Q.** And the “Thyroid (% Dosis/g)” value (timepoint 4.0 h)?
**A.** 0.08 % Dosis/g

**Q.** And the “Tumor (% Dosis/g)” value (timepoint 4.0 h)?
**A.** 5.17 % Dosis/g

**Q.** What about the “Tumor/Tissue: Adrenals” value (timepoint 4.0 h) of the same compound?
**A.** 41.62

**Q.** And the “Tumor/Tissue: Blood” value (timepoint 4.0 h)?
**A.** 148.1

**Q.** And the “Tumor/Tissue: Bone” value (timepoint 4.0 h)?
**A.** 91.73

**Q.** What about the “Tumor/Tissue: Brain” value (timepoint 4.0 h) of the same compound?
**A.** 237.6

**Q.** And the “Tumor/Tissue: Fat” value (timepoint 4.0 h)?
**A.** 2513

**Q.** What about the “Tumor/Tissue: Gallbladder” value (timepoint 4.0 h) of the same compound?
**A.** 1.11

**Q.** What about the “Tumor/Tissue: Heart” value (timepoint 4.0 h) of the same compound?
**A.** 153.2

**Q.** What about the “Tumor/Tissue: Intestine” value (timepoint 4.0 h) of the same compound?
**A.** 5.57

**Q.** What about the “Tumor/Tissue: Kidney” value (timepoint 4.0 h) of the same compound?
**A.** 28.19

**Q.** And the “Tumor/Tissue: Liver” value (timepoint 4.0 h)?
**A.** 18.60

**Q.** And the “Tumor/Tissue: Lung” value (timepoint 4.0 h)?
**A.** 227.5

**Q.** What about the “Tumor/Tissue: Muscle” value (timepoint 4.0 h) of the same compound?
**A.** 185.7

**Q.** And the “Tumor/Tissue: Ovaries” value (timepoint 4.0 h)?
**A.** 21.39

**Q.** What about the “Tumor/Tissue: Pancreas” value (timepoint 4.0 h) of the same compound?
**A.** 19.41

**Q.** And the “Tumor/Tissue: Skin” value (timepoint 4.0 h)?
**A.** 16.05

**Q.** What about the “Tumor/Tissue: Spleen” value (timepoint 4.0 h) of the same compound?
**A.** 8.58

**Q.** What about the “Tumor/Tissue: Stomach” value (timepoint 4.0 h) of the same compound?
**A.** 24.28

**Q.** And the “Tumor/Tissue: Thyroid” value (timepoint 4.0 h)?
**A.** 64.78

**Q.** And the “Tumor/Tissue: Uterus” value (timepoint 4.0 h)?
**A.** 23.55

**Q.** What about the “Uterus (% Dosis/g)” value (timepoint 4.0 h) of the same compound?
**A.** 0.21 % Dosis/g

**Q.** What about the “Summary: urine” value (timepoint 4.0 h) of the same compound?
**A.** 92.66

**Q.** What about the “Summary: Recovery” value (timepoint 4.0 h) of the same compound?
**A.** 100.1
